Reference: ChEMBL document CHEMBL1130717, “Tricyclic ureas: a new class of HIV-1 protease inhibitors” (Bioorg Med Chem Lett, 1998)

molecular target: Human immunodeficiency virus type 1 protease (Human immunodeficiency virus 1, UniProt Q72874); test: Compound was tested for the inhibition of HIV-1 protease by assaying the cleavage of a fluorescent peptide using HPLC

SMILES	Ki [nM]
O=C1N[C@H](Cc2ccccc2)[C@@H](O)[C@H](O)[C@]23CC[C@H](CC2)N13	21000
O=C1N(Cc2ccccc2)[C@H](Cc2ccccc2)[C@@H](O)[C@H](O)[C@]23CC[C@H](CC2)N13	6300
O=C1N(Cc2ccccc2)[C@H](Cc2ccccc2)[C@H](O)[C@H](O)[C@]23CC[C@H]([C@H](OCc4ccccc4)C2)N13	750
O=C1N(Cc2ccc3[nH]ncc3c2)[C@H](Cc2ccccc2)[C@H](O)[C@H](O)[C@]23CC[C@H](CC2)N13	2300
O=C1N(Cc2ccccc2)[C@H](Cc2ccccc2)[C@H](O)[C@H](O)[C@]23CC[C@H](CC2)N13	2400
O=C1N(Cc2ccc3[nH]ncc3c2)[C@H](Cc2ccccc2)[C@H](O)[C@H](O)[C@]23CC[C@H]([C@H](OCc4ccccc4)C2)N13	9
